This is an account of results in patent US20210369746A1, “ADMINISTRATION OF HYPOXIA ACTIVATED PRODRUGS IN COMBINATION WITH IMMUNE MODULATORY AGENTS FOR TREATING CANCER” (MOLECULAR TEMPLATES, INC., priority 2016, published 2021).

This assay relates to TRAMP-C2 and/or Panc02 pancreatic ductal adenocarcinoma cells. Kind of assay: Antitumor activity of TH-302 with immune modulating agents in mice xenografts. The format is in vivo. As to conditions: single agent; TH-302 50 mg/kg i.p. every day for 5 days; tumor growth observed by IVIS. On the procedure: 5×10^5 to 1×10^6 TRAMP-C2, C57BL/6J, B6, FVB F1 cells and/or Panc02 pancreatic ductal adenocarcinoma cells expressing luciferase are […] implanted s.c. on the right flank of albino or ODD-Luc reporter mice. The mice are treated with TH-302 alone (50 mg/kg i.p., every day for 5 days), either 1 week, 3 weeks or 16 weeks after TRAMP cell implantation, with a week of rest in between. Some mice are also treated with CTLA-4 blocking antibody 9H10, PD-1 blocking antibody RMP1-14 and/or agonistic […] antibody given i.p. on days 1, 4, 7 and days 13, 16 and 19 for one to three cycles. Mice are monitored for survival (log-rank, mantel-cox test) and tumor growth was observed by IVIS once a week up to 140 days after tumor implantation. The mice were then sacrificed and their organs were weighed and tumors were isolated, fixed in paraformaldehyde or acetone, embedded/mounted in OCT, frozen, sectioned, stained for hypoxia with anti-piminidazole FITC, GR-1 V450, CD11b Alexa 546, and/or F4/80 Alexa 647.

SMILES strings stand for the structures.

Consider `Cn1c(COP(=O)(NCCBr)NCCBr)cnc1[N+](=O)[O-]` [TH-302], for which the tumor growth delay entry is reported as “produced a growth delay”.
